{
  "source": "patent US20100093861A1",
  "about": "“TREATMENT OF INSULIN RESISTANCE OR DISEASES ASSOCIATED WITH INSULIN RESISTANCE” (Stevia ApS, priority 2006, published 2010)",
  "key": {"isolated mouse islets": {"system": "isolated mouse islets", "conditions": "previously demonstrated (Jeppesen, P. B. et al., 2000); cited from earlier work"}, "[1]": {"system": "isolated NMRI mice islets", "assay": "Glucose stimulated insulin secretion (GSIS) from isolated NMRI mice islets", "type": "cell-based", "conditions": "10^−8 mol/l-10^−6 mol/l, 16.7 mmol/l glucose, 60 minutes", "protocol": "For in vitro studies with steviol and ISV, we included adult female NMRI mice (Taconic, Ry Denmark), all weighing 22-25 g. We used 12 hours light/dark cycle. The Danish Council for Animal experiments has approved the study.\nIslets were isolated by the collagenase digestion technique. In brief, the animals were anesthetized with pentobarbital (50 mg/kg intraperitoneally) and midline laparotomy was performed. The pancreas was retrogradely filled with 3 mL ice-cold Hanks balanced salt solution (([HBSS] Sigma Chemical, St Louis, Mo.) supplemented with 0.3 mg/ml collagenase Boehringer Mannheim GmbH, Germany). The pancreas was subsequently removed and incubated for 19 minutes at 37° C. After rinsing in HBSS, the islets were handpicked under a stereomicroscope and immediately transferred to a tubes containing 1 ml Trizol (Gibco/Invitrogene, Calsbad, Calif., USA). The islets isolated from the NMRI mice were incubated overnight at 37° C. and 95% normal atmosphere/5% CO2 in 10 ml RPMI 1640 containing 11.1 mmol/L glucose supplemented with penicillin G and 100 μg/mL streptomycin (all Gibco/Invitrogene, Calsbad, Calif., USA).\nThe NMRI female mice islets were rinsed twice with a modified Krebs-Ringer buffer (KRB) supplemented with 3.3 mmol/L glucose and 0.1% human serum albumin (Sigma). The KRB contained 125 mmol/L NaCl, 5.9 mmol/L KCl, 1.2 MgCl, 1.28 CaCl2 and 25 mmol/L HEPES (Ph 7.4: all Sigma). Single islets were incubated in 100 μL KRB containing glucose (3.3 and 16.7 mmol/L) and steviol/ISV according to the protocols (Jeppesen et al., 2000). After incubation (60 min), 50 μL of the medium was frozen for RIA analysis of insulin."}},
  "data": [
    {"smiles": "C=C1C[C@@]23CC[C@H]4[C@@](C)(CCC[C@@]4(C)C(=O)O)[C@@H]2CC[C@]1(O)C3", "note": "[steviol, ent-kaur-16-en-13-ol-19-oic acid]", "values": [
      {"measurement": "insulinotropic effect on isolated mouse islets", "setting": "isolated mouse islets", "value": "potent insulinotropic effect"},
      {"measurement": "potency on GSIS, isosteviol compared with steviol, at higher concentration", "setting": "[1]", "value": "not found any significant difference"}
    ]}
  ]
}
